Experimental data from patent US20240228506A1, “RIPK1 INHIBITORS AND METHODS OF USE” (Merck Sharp & Dohme LLC, priority 2021, published 2024).

What follows are compounds tested against T1, GST-RIPK1 (recombinant GST-RIPK1 kinase domain (residues 1-327)) (Homo sapiens, UniProt Q13546) (assay: RIPK1-ADP-Glo enzymatic assay). Settings: 25 nM GST-RIPK1, 300 μM ATP, 3 μM dephosphorylated-MBP; 30 minutes pre-incubation, 150 minutes reaction; ten-point titration.
T1 construct: recombinant GST-RIPK1 kinase domain (residues 1-327) enzyme; made in house; host or cells: baculovirus-transfected Sf21 insect cells
T1 sequence (Q13546 1-327): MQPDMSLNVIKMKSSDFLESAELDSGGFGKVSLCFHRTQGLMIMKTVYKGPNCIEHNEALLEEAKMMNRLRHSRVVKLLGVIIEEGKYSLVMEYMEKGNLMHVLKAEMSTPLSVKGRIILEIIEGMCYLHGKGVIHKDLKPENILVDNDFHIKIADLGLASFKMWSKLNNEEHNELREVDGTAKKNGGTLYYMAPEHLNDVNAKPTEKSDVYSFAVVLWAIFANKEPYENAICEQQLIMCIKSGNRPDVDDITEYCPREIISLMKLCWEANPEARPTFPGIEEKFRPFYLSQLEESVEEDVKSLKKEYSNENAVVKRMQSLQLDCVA
Assay type: biochemical
In short: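 Ten-point 1:3 titrations from 100000 nM, 1% DMSO, were preincubated 30 min with 25 nM GST-RIPK1 (1-327) before starting with 300 μM ATP plus 3 μM dephosphorylated MBP; 150 min reaction. ADP-Glo luminescence measured ATP-to-ADP conversion; EC50 by four-parameter sigmoidal regression.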

SMILES	IC50
CC1(C(=O)N2C[C@@H]3C[C@H]2c2cncc(C#N)c2O3)CC1C(F)(F)F (stereo partly drawn) [Compound 1-46, (2S,5S)-4-[1-methyl-2-(trifluoromethyl)cyclopropane-1-carbonyl]-2,3,4,5-tetrahydro-2,5-methanopyrido[3,4-f][1,4]oxazepine-9-carbonitrile]	78 nM
N#Cc1cncc2c1O[C@H]1C[C@@H]2N(C(=O)C23CSC(C2)C3)C1 [Compound 1-47, (2S,5S)-4-(2-thiabicyclo[2.1.1]hexane-4-carbonyl)-2,3,4,5-tetrahydro-2,5-methanopyrido[3,4-f][1,4]oxazepine-9-carbonitrile]	22 nM
N#Cc1cc(N2CCC(F)(C(=O)N3C[C@@H]4C[C@H]3c3cncc(C#N)c3O4)CC2)ncn1 [Compound 1-52, (2S,5S)-4-(1-(6-cyanopyrimidin-4-yl)-4-fluoropiperidine-4-carbonyl)-2,3,4,5-tetrahydro-2,5-methanopyrido[3,4-f][1,4]oxazepine-9-carbonitrile]	116 nM
COc1cc(N2CCC(F)(C(=O)N3C[C@@H]4C[C@H]3c3cncc(C#N)c3O4)CC2)ncn1 [Compound 1-53, (2S,5S)-4-(4-fluoro-1-(6-methoxypyrimidin-4-yl)piperidine-4-carbonyl)-2,3,4,5-tetrahydro-2,5-methanopyrido[3,4-f][1,4]oxazepine-9-carbonitrile]	226 nM
N#Cc1cncc2c1O[C@H]1C[C@@H]2N(C(=O)C2(F)CCN(C(=O)c3ccccc3)CC2)C1 [Compound 1-54, (2S,5S)-4-(1-benzoyl-4-fluoropiperidine-4-carbonyl)-2,3,4,5-tetrahydro-2,5-methanopyrido[3,4-f][1,4]oxazepine-9-carbonitrile]	116 nM
N#Cc1cncc2c1O[C@H]1C[C@@H]2N(C(=O)C2(F)CCN(c3ccnc4c(F)cnn34)CC2)C1 [Compound 1-55, (2S,5S)-4-(4-fluoro-1-(3-fluoropyrazolo[1,5-a]pyrimidin-7-yl)piperidine-4-carbonyl)-2,3,4,5-tetrahydro-2,5-methanopyrido[3,4-f][1,4]oxazepine-9-carbonitrile]	18 nM
COc1ccnc(N2CCC(F)(C(=O)N3C[C@@H]4C[C@H]3c3cncc(C#N)c3O4)CC2)n1 [Compound 1-56, (2S,5S)-4-(4-fluoro-1-(4-methoxypyrimidin-2-yl)piperidine-4-carbonyl)-2,3,4,5-tetrahydro-2,5-methanopyrido[3,4-f][1,4]oxazepine-9-carbonitrile]	41 nM
N#Cc1cncc2c1O[C@H]1C[C@@H]2N(C(=O)C2(F)CCN(c3ncnc4scnc34)CC2)C1 [Compound 1-57, (2S,5S)-4-(4-fluoro-1-(thiazolo[5,4-d]pyrimidin-7-yl)piperidine-4-carbonyl)-2,3,4,5-tetrahydro-2,5-methanopyrido[3,4-f][1,4]oxazepine-9-carbonitrile]	35 nM
N#Cc1cncc2c1O[C@H]1C[C@@H]2N(C(=O)C2(F)CCN(c3nccn4ncnc34)CC2)C1 [Compound 1-58, (2S,5S)-4-(1-([1,2,4]triazolo[1,5-a]pyrazin-8-yl)-4-fluoropiperidine-4-carbonyl)-2,3,4,5-tetrahydro-2,5-methanopyrido[3,4-f][1,4]oxazepine-9-carbonitrile]	74 nM
CC1OCCC1(C)C(=O)N1C[C@@H]2C[C@H]1c1cncc(C#N)c1O2 (stereo partly drawn) [Compound 1-59, (2S,5S)-4-(2,3-dimethyltetrahydrofuran-3-carbonyl)-2,3,4,5-tetrahydro-2,5-methanopyrido[3,4-f][1,4]oxazepine-9-carbonitrile]	587 nM
N#Cc1cncc2c1O[C@H]1C[C@@H]2N(C(=O)C2(C(F)F)CCCO2)C1 (stereo partly drawn) [Compound 1-60, (2S,5S)-4-(2-(difluoromethyl)tetrahydro-furan-2-carbonyl)-2,3,4,5-tetrahydro-2,5-methanopyrido[3,4-f][1,4]oxazepine-9-carbonitrile]	230 nM
N#Cc1cncc2c1O[C@H]1C[C@@H]2N(C(=O)C23CCC(CC2)CC3)C1 [Compound 1-61, (2S,5S)-4-(bicyclo[2.2.2]octane-1-carbonyl)-2,3,4,5-tetrahydro-2,5-methanopyrido[3,4-f][1,4]oxazepine-9-carbonitrile]	34 nM
N#Cc1cncc2c1O[C@H]1C[C@@H]2N(C(=O)C23CCC(F)(CC2)CC3)C1 [Compound 1-63, (2S,5S)-4-(4-fluorobicyclo[2.2.2]octane-1-carbonyl)-2,3,4,5-tetrahydro-2,5-methanopyrido[3,4-f][1,4]oxazepine-9-carbonitrile]	58 nM
COC1(C(=O)N2C[C@@H]3C[C@H]2c2cncc(C#N)c2O3)CCCC1 [Compound 1-65, (2S,5S)-4-(1-methoxycyclopentane-1-carbonyl)-2,3,4,5-tetrahydro-2,5-methanopyrido[3,4-f][1,4]oxazepine-9-carbonitrile]	76 nM
N#Cc1cncc2c1O[C@H]1C[C@@H]2N(C(=O)C23CC(C(F)(F)F)(CO2)C3)C1 [Compound 1-66, (2S,5S)-4-(4-(trifluoromethyl)-2-oxabicyclo[2.1.1]hexane-1-carbonyl)-2,3,4,5-tetrahydro-2,5-methanopyrido[3,4-f][1,4]oxazepine-9-carbonitrile]	514 nM
CC(C)(Cc1ccccc1)C(=O)N1C[C@@H]2C[C@H]1c1cncc(C#N)c1O2 [Compound 1-68, (2S,5S)-4-(2,2-dimethyl-3-phenylpropanoyl)-2,3,4,5-tetrahydro-2,5-methanopyrido[3,4-f][1,4]oxazepine-9-carbonitrile]	259 nM
CC1(C(=O)N2C[C@@H]3C[C@H]2c2cncc(C#N)c2O3)CC2CCC1C2 (stereo partly drawn) [Compound 1-69, (2S,5S)-4-(2-methylbicyclo[2.2.1]heptane-2-carbonyl)-2,3,4,5-tetrahydro-2,5-methanopyrido[3,4-f][1,4]oxazepine-9-carbonitrile]	77 nM
N#Cc1cncc2c1O[C@H]1C[C@@H]2N(C(=O)C2(F)CCN(c3cc(-c4ccccc4)ncn3)CC2)C1 [Compound 1-70, (2S,5S)-4-(4-fluoro-1-(6-phenylpyrimidin-4-yl)piperidine-4-carbonyl)-2,3,4,5-tetrahydro-2,5-methanopyrido[3,4-f][1,4]oxazepine-9-carbonitrile]	35 nM
N#Cc1cncc2c1O[C@H]1C[C@@H]2N(C(=O)C2(F)CCN(c3cc(C4CC4)ncn3)CC2)C1 [Compound 1-71, (2S,5S)-4-(1-(6-cyclopropylpyrimidin-4-yl)-4-fluoropiperidine-4-carbonyl)-2,3,4,5-tetrahydro-2,5-methanopyrido[3,4-f][1,4]oxazepine-9-carbonitrile]	232 nM
N#Cc1cncc2c1O[C@H]1C[C@@H]2N(C(=O)C2(F)CCN(c3ccnc(Cl)c3)CC2)C1 [Compound 1-72, (2S,5S)-4-(1-(2-chloropyridin-4-yl)-4-fluoropiperidine-4-carbonyl)-2,3,4,5-tetrahydro-2,5-methanopyrido[3,4-f][1,4]oxazepine-9-carbonitrile]	35 nM
CC12COC(C(=O)N3C[C@@H]4C[C@H]3c3cncc(C#N)c3O4)(C1)C2 [Compound 1-73, (2S,5S)-4-(4-methyl-2-oxabicyclo[2.1.1]hexane-1-carbonyl)-2,3,4,5-tetrahydro-2,5-methanopyrido[3,4-f][1,4]oxazepine-9-carbonitrile]	501 nM
CCC1(C(=O)N2C[C@@H]3C[C@H]2c2cncc(C#N)c2O3)CC1 [Compound 1-74, (2S,5S)-4-(1-ethylcyclopropane-1-carbonyl)-2,3,4,5-tetrahydro-2,5-methanopyrido[3,4-f][1,4]oxazepine-9-carbonitrile]	347 nM
